Tests used:
[1] = target: Coagulation factor XI (Homo sapiens, UniProt P03951); assay: Inhibition of human F11a using peptide substrate by spectrophotometry
[2] = tested on: Plasma; assay: Anticoagulant activity in human plasma assessed as concentration required to produce 50% increase in activated partial thromboplastin time relative to baseline control; type: functional
[3] = target: Coagulation factor X (Homo sapiens, UniProt P00742); assay: Binding affinity to F10a (unknown origin)
[4] = Binding affinity to trypsin (unknown origin); design: species or system Homo sapiens
[5] = target: Prothrombin (Homo sapiens, UniProt P00734); assay: Binding affinity to F2a (unknown origin)
[6] = target: T1, Coagulation factor VII (Homo sapiens, UniProt P08709); assay: Binding affinity to F7a (unknown origin)
T1 sequence (P08709 whole entry): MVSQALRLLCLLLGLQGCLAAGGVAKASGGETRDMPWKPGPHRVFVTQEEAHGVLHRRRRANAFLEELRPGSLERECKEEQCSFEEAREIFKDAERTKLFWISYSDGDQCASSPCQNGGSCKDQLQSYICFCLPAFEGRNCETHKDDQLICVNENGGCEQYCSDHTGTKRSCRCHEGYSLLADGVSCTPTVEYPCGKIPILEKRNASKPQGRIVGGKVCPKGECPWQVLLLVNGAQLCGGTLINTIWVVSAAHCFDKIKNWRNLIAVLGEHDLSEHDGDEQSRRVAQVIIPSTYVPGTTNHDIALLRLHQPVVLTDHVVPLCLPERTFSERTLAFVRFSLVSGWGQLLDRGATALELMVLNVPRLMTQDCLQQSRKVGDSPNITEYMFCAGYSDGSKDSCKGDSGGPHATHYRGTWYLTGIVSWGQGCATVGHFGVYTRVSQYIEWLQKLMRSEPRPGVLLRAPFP

Chain of Coagulation factor XI (P03951 19-387 limits assumed): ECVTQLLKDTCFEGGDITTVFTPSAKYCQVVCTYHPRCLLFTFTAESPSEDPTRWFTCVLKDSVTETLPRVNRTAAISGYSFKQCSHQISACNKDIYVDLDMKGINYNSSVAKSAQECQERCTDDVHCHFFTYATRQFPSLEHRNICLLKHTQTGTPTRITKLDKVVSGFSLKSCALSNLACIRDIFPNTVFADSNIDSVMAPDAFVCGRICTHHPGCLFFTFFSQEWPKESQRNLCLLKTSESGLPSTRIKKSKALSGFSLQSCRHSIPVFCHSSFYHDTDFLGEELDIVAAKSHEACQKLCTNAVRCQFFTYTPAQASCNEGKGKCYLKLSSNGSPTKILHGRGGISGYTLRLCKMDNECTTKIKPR
Chain of Coagulation factor XI (P03951 388-625 limits assumed): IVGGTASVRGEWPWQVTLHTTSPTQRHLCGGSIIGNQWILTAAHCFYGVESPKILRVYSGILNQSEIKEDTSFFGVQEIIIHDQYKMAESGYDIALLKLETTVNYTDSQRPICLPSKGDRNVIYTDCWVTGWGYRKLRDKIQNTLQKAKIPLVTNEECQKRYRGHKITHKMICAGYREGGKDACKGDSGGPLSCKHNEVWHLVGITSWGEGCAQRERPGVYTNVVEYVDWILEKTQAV
Chain of Coagulation factor X (P00742 41-179 limits assumed): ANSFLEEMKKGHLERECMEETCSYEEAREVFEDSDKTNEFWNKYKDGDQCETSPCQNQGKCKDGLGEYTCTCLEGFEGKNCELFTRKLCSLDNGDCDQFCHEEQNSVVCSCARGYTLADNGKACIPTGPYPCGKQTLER
Chain of Coagulation factor X (P00742 235-488 limits assumed): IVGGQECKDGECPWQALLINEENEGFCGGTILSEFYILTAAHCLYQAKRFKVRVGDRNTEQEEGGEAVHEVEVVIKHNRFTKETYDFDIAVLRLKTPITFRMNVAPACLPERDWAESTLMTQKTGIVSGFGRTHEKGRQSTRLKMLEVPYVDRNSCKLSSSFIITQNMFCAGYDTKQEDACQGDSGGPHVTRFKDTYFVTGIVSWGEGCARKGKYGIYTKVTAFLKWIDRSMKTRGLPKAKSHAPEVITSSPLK

Row | SMILES | Ki [1] [nM] | Activity [2] [µM] | also measured
1 | COC(=O)Nc1ccc2c(c1)NC(=O)CCc1cccc(n1)C[C@H](NC(=O)/C=C/c1cc(Cl)ccc1-n1cnnn1)c1nc-2c[nH]1 | 0.32 | 0.27 to 0.4 | 
2 | COC(=O)Nc1ccc2c(c1)CNC(=O)c1cccc(c1)C[C@H](NC(=O)/C=C/c1cc(Cl)ccc1-n1cnnn1)c1nc-2c(Cl)[nH]1 | 92 |  | 
3 | COC(=O)Nc1ccc2c(c1)NC(=O)CCc1cccc(c1)C[C@H](NC(=O)/C=C/c1cc(Cl)ccc1-n1cnnn1)c1nc-2c[nH]1 | 1.5 | 2.1 | 
4 | COC(=O)Nc1ccc2c(c1)CCCCc1cccc(c1)C[C@H](NC(=O)/C=C/c1cc(Cl)ccc1-n1cnnn1)c1nc-2c(Cl)[nH]1 |  | 34 | 
5 | COC(=O)Nc1ccc2c(c1)NC(=O)CCc1nc(ccc1F)C[C@H](NC(=O)/C=C/c1cc(Cl)ccc1-n1cnnn1)c1nc-2c[nH]1 | 0.02 | 0.27 | Ki [3]: 1400 nM; Ki [4]: 670 nM; Ki [5]: > 13000 nM; Ki [6]: 1100 nM
6 | COC(=O)Nc1ccc2c(c1)NC(=O)CCc1cc(ccc1F)C[C@H](NC(=O)/C=C/c1cc(Cl)ccc1-n1cnnn1)c1nc-2c[nH]1 | 0.53 | 1.4 | 
7 | COC(=O)Nc1ccc2c(c1)CCCCc1cccc(c1)C[C@H](NC(=O)/C=C/c1cc(Cl)ccc1-n1cnnn1)c1nc-2c[nH]1 | 17 | 23 | 
8 | COC(=O)Nc1ccc2c(c1)CNC(=O)c1ccc(cc1)C[C@H](NC(=O)/C=C/c1cc(Cl)ccc1-n1cnnn1)c1nc-2c[nH]1 | 6400 |  | 
9 | COC(=O)Nc1ccc2c(c1)CNC(=O)c1cccc(c1)C[C@H](NC(=O)/C=C/c1cc(Cl)ccc1-n1cnnn1)c1nc-2c[nH]1 | 500 |  | 

Source: ChEMBL document CHEMBL4043146, “Macrocyclic factor XIa inhibitors” (Bioorg Med Chem Lett, 2017)
